According to patent publication US20150250166A1, “NOOTKATONE AS AN INSECTICIDE AND INSECT REPELLENT” (ALLYLIX, INC., priority 2012, published 2015):

System: adult bed bugs (Cimex lectularius)
Assay: Bed bug repellency, treated versus untreated filter paper halves in Petri dish chamber
Assay type: in vivo
Details: for Repellency (%) Treatment Group / bed bugs on Nootkatone treatment filter paper (count, of 50) / Repellency (summary of bedbug repellency): 0.1% BHT; for Corrected 0.25% nootkatone repellency / bed bugs on 0.25% Nootkatone-treated filter paper, average count (of 10) / Corrected 1% nootkatone repellency / bed bugs on 1% Nootkatone-treated filter paper, average count (of 10): 0.1% BHT in ethanol, dried paper; for Nootkatone Repellency / bed bugs on nootkatone-treated filter paper (count, of 50): 5% Nootkatone in acetone, 0.1% BHT (title; column head prints 10%); for Nootkatone Repellency (corrected for isopropanol control) / bed bugs on 10% Nootkatone-treated filter paper, average count of five trials (of 10): 10% nootkatone, 0.1% BHT in isopropanol
Procedure: A formulation, containing 10% nootkatone, 0.1% butylated hydroxytoluene (BHT) in isopropanol was tested for efficacy for repelling adult bed bugs (Cimex lectularius). Treatment chambers were created by cutting a circular hole in the bottom of 15-cm Petri dishes. A fine mesh nylon cloth was then glued to Petri dishes, covering the holes. The chambers were formed using the inverted Petri dishes with the screened bottoms serving as the tops and the lids forming the base of the chambers. The lids were secured with rubber bands.
Five semi-circular pieces of filter paper, with a diameter of 15 cm, were arranged so that they were evenly spaced on a sheet of aluminum foil. Equal amounts of 10% nootkatone solution, stored at ambient temperature and humidity, were applied to the filter papers until they were wet to the point of runoff. Five untreated semi-circular pieces were marked with the letter “c”, for control, on both sides in pencil or solvent resistant ink. One nootkatone-treated filter paper and one untreated filter paper were placed with the flat sides against each other, creating a full circle, in the lids of five 15-cm Petri dishes, serving as the treatment chambers described above, such that the entire surface of the lid was covered. Immediately after placing the filter paper semi-circles into the lid, 10 bed bugs, having received a blood meal no more than 7 days before, were placed onto the untreated piece of paper and covered with the ventilated base of the Petri dish. The containers of each replicate were then kept at ambient laboratory temperature and humidity for the duration of the study. The distribution of the bed bugs on the treated and untreated filter papers was recorded at 0.5, 1, 1.5, 2, and 24 hours after being placed in the containers. Observations were made in darkness with the aid of a red lens flashlight. Gloves and a dust mask were worn by the observer to reduce detection of the bed bugs and to minimize disturbance caused by the observer. Five additional treatment chambers were created as described above, except the treated filter paper was soaked with isopropyl alcohol (control treatment), instead of the 10% nootkatone solution. Bed bug distribution in the control chambers were recorded as described for the treatment condition.
The nootkatone treatment repellency was calculated from the following equation: R=[(C−T)/C]*100, where R is the % repellency, C is the fraction of bed bugs on the isopropanol-treated filter papers, and T is the fraction of bed bugs on the nootkatone-treated filter papers.
A formulation, containing 5% nootkatone, 0.1% butylated hydroxytoluene (BHT) in acetone was tested for efficacy for repelling adult bed bugs (Cimex lectularius) using the methods as described above.
The duration of 1% and 0.25% nootkatone […] repellent effects was evaluated in this example. Bed bug (Cimex lectularius) treatment chambers were created as described in part A above, except using 9-cm Petri dishes and semicircles of filter paper with a diameter of 9 cm. Five replicate semicircles of filter paper were treated with 1 ml 1.0% nootkatone, 0.1% BHT in ethanol; 0.25% nootkatone, 0.1% BHT in ethanol; or ethanol alone (control), and placed side by side with untreated filter papers (marked with a “c”) in Petri dishes so that the lid surfaces were completely covered as previously described in part A. Prior to addition of the bed bugs, the filter papers were confirmed to be completely dry and free of any residual ethanol odor.
Following chamber preparation, 10 bed bugs, having received a blood meal no more than 7 days prior, were added to each chamber on the untreated filter paper as described above. Distribution of the 10 bed bugs per chamber was recorded at 0.5, 1, 1.5, 2, and 24 hours following treatment (Day 1). At the end of 24 hours, the old bed bugs were removed from the Petri dish and 10 new bed bugs were added. […]

[1] = 0.01% nootkatone in acetone, Day 1, 0.5 hour
[2] = 0.01% nootkatone in acetone, Day 1, 1.5 hour
[3] = 0.01% nootkatone in acetone, Day 1, 2.0 hour
[4] = 0.01% nootkatone in acetone, Day 1, Average of time points
[5] = 0.01% nootkatone in acetone, Day 2, 0.5 hour
[6] = 0.01% nootkatone in acetone, Day 2, 1.0 hour
[7] = 0.01% nootkatone in acetone, Day 2, 1.5 hour
[8] = 0.01% nootkatone in acetone, Day 2, 2.0 hour
[9] = 0.01% nootkatone in acetone, Day 2, 24.0 hour
[10] = 0.01% nootkatone in acetone, Day 2, Average of time points
[11] = 0.10% nootkatone in acetone, Day 1, 1.0 hour
[12] = 0.10% nootkatone in acetone, Day 1, 1.5 hour
[13] = 0.10% nootkatone in acetone, Day 1, 24.0 hour
[14] = 0.10% nootkatone in acetone, Day 1, Average of time points
[15] = 0.10% nootkatone in acetone, Day 2, 0.5 hour
[16] = 0.10% nootkatone in acetone, Day 2, 1.0 hour
[17] = 0.10% nootkatone in acetone, Day 2, 1.5 hour
[18] = 0.10% nootkatone in acetone, Day 2, 2.0 hour
[19] = 0.10% nootkatone in acetone, Day 2, 24.0 hour
[20] = 0.10% nootkatone in acetone, Day 2, Average of time points
[21] = 0.50% nootkatone in acetone, Day 1, 1.0 hour
[22] = 0.50% nootkatone in acetone, Day 1, 1.5 hour
[23] = 0.50% nootkatone in acetone, Day 1, 2.0 hour
[24] = 0.50% nootkatone in acetone, Day 1, 24.0 hour
[25] = 0.50% nootkatone in acetone, Day 2, 0.5 hour
[26] = 0.50% nootkatone in acetone, Day 2, 1.5 hour
[27] = 0.50% nootkatone in acetone, Day 2, 2.0 hour
[28] = 0.50% nootkatone in acetone, Day 2, 24.0 hour

C=C(C)[C@@H]1CCC2=CC(=O)C[C@@H](C)[C@]2(C)C1 [nootkatone, 4,4a,5,6,7,8-hexahydro-6-isopropenyl-4,4a-dimethyl-2(3H)-naphtalenone]
Repellency (%) Treatment Group [1]: 68.0% | bed bugs on Nootkatone treatment filter paper (count, of 50) [1]: 16 | bed bugs on Nootkatone treatment filter paper (count, of 50) (0.01% nootkatone in acetone, Day 1, 1.0 hour): 17 | Repellency (%) Treatment Group [2]: 66.0% | bed bugs on Nootkatone treatment filter paper (count, of 50) [2]: 17 | Repellency (%) Treatment Group [3]: 72.0% | bed bugs on Nootkatone treatment filter paper (count, of 50) [3]: 14 | Repellency (%) Treatment Group (0.01% nootkatone in acetone, Day 1, 24.0 hour): 58.0% | Repellency (%) Treatment Group [4]: 66.0% | bed bugs on Nootkatone treatment filter paper (count, of 50) [4]: 17.0 | Repellency (%) Treatment Group [5]: 82.0% | bed bugs on Nootkatone treatment filter paper (count, of 50) [5]: 9 | Repellency (%) Treatment Group [6]: 72.0% | bed bugs on Nootkatone treatment filter paper (count, of 50) [6]: 14 | Repellency (%) Treatment Group [7]: 62.0% | bed bugs on Nootkatone treatment filter paper (count, of 50) [7]: 19 | Repellency (%) Treatment Group [8]: 64.0% | bed bugs on Nootkatone treatment filter paper (count, of 50) [8]: 18 | Repellency (%) Treatment Group [9]: 62.0% | bed bugs on Nootkatone treatment filter paper (count, of 50) [9]: 19 | Repellency (%) Treatment Group [10]: 68.4% | bed bugs on Nootkatone treatment filter paper (count, of 50) [10]: 15.8 | bed bugs on Nootkatone treatment filter paper (count, of 50) (0.10% nootkatone in acetone, Day 1, 0.5 hour): 3 | Repellency (%) Treatment Group [11]: 92.0% | bed bugs on Nootkatone treatment filter paper (count, of 50) [11]: 4 | Repellency (%) Treatment Group [12]: 90.0% | bed bugs on Nootkatone treatment filter paper (count, of 50) [12]: 5 | bed bugs on Nootkatone treatment filter paper (count, of 50) (0.10% nootkatone in acetone, Day 1, 2.0 hour): 3 | Repellency (%) Treatment Group [13]: 98.0% | bed bugs on Nootkatone treatment filter paper (count, of 50) [13]: 1 | Repellency (%) Treatment Group [14]: 93.6% | bed bugs on Nootkatone treatment filter paper (count, of 50) [14]: 3.2 | Repellency (%) Treatment Group [15]: 72.0% | bed bugs on Nootkatone treatment filter paper (count, of 50) [15]: 14 | Repellency (%) Treatment Group [16]: 70.0% | bed bugs on Nootkatone treatment filter paper (count, of 50) [16]: 15 | Repellency (%) Treatment Group [17]: 74.0% | bed bugs on Nootkatone treatment filter paper (count, of 50) [17]: 13 | Repellency (%) Treatment Group [18]: 70.0% | bed bugs on Nootkatone treatment filter paper (count, of 50) [18]: 15 | Repellency (%) Treatment Group [19]: 82.0% | bed bugs on Nootkatone treatment filter paper (count, of 50) [19]: 9 | Repellency (%) Treatment Group [20]: 73.6% | bed bugs on Nootkatone treatment filter paper (count, of 50) [20]: 13.2 | bedbug repellency, in words (0.1% nootkatone in acetone, day two): moderate (statistically significant) repellent | bedbug repellency, in words (0.25% nootkatone in ethanol): not sufficient to repel bed bugs | Corrected 0.25% nootkatone repellency (Day 1): 19% | bed bugs on 0.25% Nootkatone-treated filter paper, average count (of 10) (Day 1): 2.68 | Corrected 0.25% nootkatone repellency (Day 2): 23% | bed bugs on 0.25% Nootkatone-treated filter paper, average count (of 10) (Day 2): 4.2 | Corrected 0.25% nootkatone repellency (Day 3): 49% | bed bugs on 0.25% Nootkatone-treated filter paper, average count (of 10) (Day 3): 2.32 | Corrected 0.25% nootkatone repellency (Day 4): −14% | bed bugs on 0.25% Nootkatone-treated filter paper, average count (of 10) (Day 4): 4 | Repellency (%) Treatment Group [21]: 100.0% | bed bugs on Nootkatone treatment filter paper (count, of 50) [21]: 0 | Repellency (%) Treatment Group [22]: 100.0% | bed bugs on Nootkatone treatment filter paper (count, of 50) [22]: 0 | Repellency (%) Treatment Group [23]: 100.0% | bed bugs on Nootkatone treatment filter paper (count, of 50) [23]: 0 | Repellency (%) Treatment Group [24]: 100.0% | bed bugs on Nootkatone treatment filter paper (count, of 50) [24]: 0 | Repellency (%) Treatment Group (0.50% nootkatone in acetone, Day 1, Average of time points): 100.0% | Repellency (%) Treatment Group [25]: 86.0% | bed bugs on Nootkatone treatment filter paper (count, of 50) [25]: 7 | bed bugs on Nootkatone treatment filter paper (count, of 50) (0.50% nootkatone in acetone, Day 2, 1.0 hour): 6 | Repellency (%) Treatment Group [26]: 94.0% | bed bugs on Nootkatone treatment filter paper (count, of 50) [26]: 3 | Repellency (%) Treatment Group [27]: 98.0% | bed bugs on Nootkatone treatment filter paper (count, of 50) [27]: 1 | Repellency (%) Treatment Group [28]: 92.0% | bed bugs on Nootkatone treatment filter paper (count, of 50) [28]: 4 | Repellency (%) Treatment Group (0.50% nootkatone in acetone, Day 2, Average of time points): 91.6% | duration of bed bug repellency following treatment (1% nootkatone in ethanol on filter paper): about 4 days | Corrected 1% nootkatone repellency (Day 1): 93% | bed bugs on 1% Nootkatone-treated filter paper, average count (of 10) (Day 1): 0.24 | Corrected 1% nootkatone repellency (Day 2): 66% | bed bugs on 1% Nootkatone-treated filter paper, average count (of 10) (Day 2): 1.84 | Corrected 1% nootkatone repellency (Day 3): 81% | bed bugs on 1% Nootkatone-treated filter paper, average count (of 10) (Day 3): 0.88 | Corrected 1% nootkatone repellency (Day 4): 84% | bed bugs on 1% Nootkatone-treated filter paper, average count (of 10) (Day 4): 0.56 | Corrected 1% nootkatone repellency (Day 5): 68% | bed bugs on 1% Nootkatone-treated filter paper, average count (of 10) (Day 5): 1.52 | Corrected 1% nootkatone repellency (Day 6): 20% | bed bugs on 1% Nootkatone-treated filter paper, average count (of 10) (Day 6): 2.24 | Corrected 1% nootkatone repellency (Day 7): 63% | bed bugs on 1% Nootkatone-treated filter paper, average count (of 10) (Day 7): 1.84 | Nootkatone Repellency (0.5 hr): 100.0% | bed bugs on nootkatone-treated filter paper (count, of 50) (0.5 hr): 0 | Nootkatone Repellency (1 hr): 100.0% | bed bugs on nootkatone-treated filter paper (count, of 50) (1 hr): 0 | Nootkatone Repellency (1.5 hr): 100.0% | bed bugs on nootkatone-treated filter paper (count, of 50) (1.5 hr): 0 | Nootkatone Repellency (2 hr): 100.0% | bed bugs on nootkatone-treated filter paper (count, of 50) (2 hr): 0 | Nootkatone Repellency (24 hr): 100.0% | bed bugs on nootkatone-treated filter paper (count, of 50) (24 hr): 0 | Nootkatone Repellency (Averages of time points): 100.0% | bed bugs on nootkatone-treated filter paper (count, of 50) (Averages of time points): 0 | bed bug repellency compared with acetone alone, in words (5% nootkatone in acetone): repels bed bugs to a greater extent than that observed for acetone alone | bed bug repellency compared with isopropanol alone, in words (10% nootkatone in isopropyl alcohol): repels bed bugs to a greater extent than that observed for isopropanol alone | Nootkatone Repellency (corrected for isopropanol control) (0.5 hr): 85.7% | bed bugs on 10% Nootkatone-treated filter paper, average count of five trials (of 10) (0.5 hr): 0.4 | Nootkatone Repellency (corrected for isopropanol control) (1 hr): 100.0% | bed bugs on 10% Nootkatone-treated filter paper, average count of five trials (of 10) (1 hr): 0 | Nootkatone Repellency (corrected for isopropanol control) (1.5 hr): 100.0% | bed bugs on 10% Nootkatone-treated filter paper, average count of five trials (of 10) (1.5 hr): 0 | Nootkatone Repellency (corrected for isopropanol control) (2 hr): 100.0% | bed bugs on 10% Nootkatone-treated filter paper, average count of five trials (of 10) (2 hr): 0 | Nootkatone Repellency (corrected for isopropanol control) (24 hr): 100.0% | bed bugs on 10% Nootkatone-treated filter paper, average count of five trials (of 10) (24 hr): 0 | Repellency (summary of bedbug repellency) (Nootkatone 0.010% in acetone, Day 2): 68.0% | Repellency (summary of bedbug repellency) (Nootkatone 0.10% in acetone, Day 2): 73.6% | Repellency (summary of bedbug repellency) (Nootkatone 0.50% in acetone, Day 1): 100.0% | Repellency (summary of bedbug repellency) (Nootkatone 0.50% in acetone, Day 2): 91.6%
